US20160030472A1, “XENON-BASED ANESTHETIC GAS COMPOSITION USABLE DURING AN ENDARTERECTOMY INVOLVING THE CLAMPING OF THE CAROTID ARTERY” (Air Liquide Santé (International), priority 2013, published 2016)

Test system: patients scheduled for carotid surgery
Assay: Randomized study of xenon versus sevoflurane for maintaining general anesthesia during carotid endarterectomy with clamping of the internal carotid artery
Format: in vivo, human being
Settings: for average radial-carotid pressure gradient (PG) between systemic SAP and arterial pressure in the clamped carotid artery: during clamping of the internal carotid artery, group X (xenon 60%±5%, at least 30% oxygen) compared with group S (sevoflurane), 12 patients per group
Procedure: The study was carried out in 24 patients scheduled for carotid surgery, comprising men and women. The choice of treatment of the patients is made randomly (randomization): • either using a routine anesthetic agent, namely sevoflurane: group S of 12 patients, • or by inhalation of xenon at 60%±5% in a mixture with at least 30% of oxygen: group X of 12 patients (% by volume). Anesthesia was induced identically in the 2 groups using intravenous products, namely propofol (target 1.5 μg/ml) and a morphine compound, remifentanil (target 4 ng/ml), double TCI (Target Controlled Infusion). The main assessment criterion is the pressure gradient (PG) between the systolic arterial pressure (SAP) measured at the level of a radial arterial catheter contralateral to the surgery and the arterial pressure in the clamped carotid artery. This pressure is obtained by means of a Fogarty catheter, which also enables clamping of the internal carotid artery by inflation of the balloon, connected to a pressure sensor. The continuous recording and the calculation of the PG are carried out live by a BiopAC system. This method makes it possible to obtain a measurement of the PG throughout the entire duration of the clamping of the internal carotid artery. The statistical analyses are carried out with R Project for Statistician Computing (www.r-project.org).

Compound	consumption of vasopressor products for maintaining the systemic arterial pressure (group S compared with group X, p<0.001)	average radial-carotid pressure gradient (PG) between systemic SAP and arterial pressure in the clamped carotid artery (p<0.001)	average radial-carotid pressure gradient (PG) between systemic SAP and arterial pressure in the clamped carotid artery (p<0.001, listed as group X)	hemodynamic parameters during maintenance of anesthesia (maintenance of anesthesia with xenon)	systemic systolic arterial pressure values (maintenance of anesthesia with xenon, compared with the usual inhaled or intravenous (IV) anesthetic agents)
FCOC(C(F)(F)F)C(F)(F)F [sevoflurane, reference compound]	significantly higher	–	–	–	–
[Xe] [xenon]	–	reduce the pressure gradient (PG)	significantly lower	stable	higher
